Values of other authors, collected in patent US20210337800A1, “METHOD AND SYSTEM OF IMPROVING THE PERSONAL PROTECTIVE EQUIPMENT OF […] AND THE GENERAL PUBLIC USING ANT[…]” (Sockdocs Inc., priority 2020, published 2021).

Tested on: viruses
Conditions: testing in 2006; no method or virus named

Compound: CCCCCCCCCCCCCCCCCC[N+](C)(C)CCC[Si](OC)(OC)OC.[Cl-] [3-(trimethoxysilyl) propyldimethyloctadecyl ammonium chloride]
- anti-viral activity: showed anti-viral activity
